Tests used:
A549 cells [1] = assay: acridine orange staining of acidic vesicular organelles (microscopy and FACS); assay type: cell-based, human; conditions: for proportion of acridine orange-positive cells: 24 h, IR alone 12.5%
Experimental: Autophagic cell death has been recognized as programmed cell death type II, it has been detected in a variety of cancer cells treated with radiation or chemotherapy. Therefore, it had been examined whether IR treatment combined with berberine induced autophagic cell death in A549 cells by electron microscopic analysis (FIG. 4A). Cells were harvested by trypsinization, and fixed with 2% glutaraldehyde, 4% paraformaldehyde and 1% tannic acid in 0.1 mol/L cacodylate buffer, pH 7.4, for 25 h. The cells were stained with an osmium-thiocarbohydrazide-osmium (OTO). After staining, the cells were dehydrated in a graded series of 70% to 100% EtOH and then immersed serially with 1:1 hexamethyldisilazane and absolute ethanol. One micrometer thin sections were cut, and the gels were coated with 500 Å of gold in a JEOL Vacuum sputter coater and viewed in a JEOL […] electron microscope with scanning attachment (JEOL, Tokyo, Japan). […] Autophagy is characterized by the development of AVOs, which is measured by vital staining of acridine orange. Acridine orange (Polysciences, Warrington, Pa.) was added to cells at a final concentration of 1 μg/mL for a period of 15 min. Pictures were taken with a fluorescent microscope (Nikon TE-300) equipped with a 490-nm band-pass blue excitation filters, a 500-nm dichroic mirror, and a 515-nm-long pass-barrier filter. To quantitate acidic vesicular organelles, Stained cells were collected for the FACScan (Becton Dickinson, San Jose, Calif.) using CellQuest software (Becton Dickinson). Acridine orange-positive cells with bright red fluorescence were detected among A549 cells 24 h after co-treated with berberine and IR (6 Gy), whereas they were sparse among non-treated cells or irradiated cells (FIG. 4B). […] FIG. 4C).

LLC cells = assay: MTT cell viability, berberine combined with IR, LLC cells; assay type: cell-based; conditions: LLC cells (data not shown)
Text: The data were depicted in FIG. 1C after normalization.

A549 cells [2] = test system: A549 cells
Experimental: (§1) Cells were cultured in phenol-red-free medium and irradiated with a […] (Varian, 21-EX). The radiation was delivered as a single dose ranging from 2 to 8 Gy in an appropriate field size at a dose rate of 400 cGy/min. A 3-cm polystyrene block was used under the petri dishes during each irradiation to allow homogeneous backscattering radiation. Control cells were removed from the incubator and placed for the same period of time under the IR source but without radiation treatment. In the combined treatment mortality tests, berberine was added 2 h prior to irradiation.
The enhancing effect of berberine on radio-sensitivity in NSCLC was performed by treating A549 with various concentrations of berberine alone or combined with different dose of IR at 37° C. for 24 h or 48 h followed by MTT assay for cell viability analysis. Thereafter, the medium was changed and incubated with 100 μl MTT (Sigma St Louis, Mo.)/well for 4 h, which was solubilized in isopropanol, and measured spectrophotometrically at 563 nm. […] To further ascertain the effect of berberine on the lethality of IR, clonogenic survival assay was performed to examine long term survival. […] After 14 days, colonies were fixed with methanol, stained with 0.25% crystal violet, and counted if they were consisted of more than 50 cells. […]

A549 cells [3] = assay: clonogenic survival assay (linear-quadratic model); assay type: cell-based, human
Experimental: as §1
The enhancing effect of berberine on radio-sensitivity in NSCLC was performed by treating A549 with various concentrations of berberine alone or combined with different dose of IR at 37° C. for 24 h or 48 h followed by MTT assay for cell viability analysis. Thereafter, the medium was changed and incubated with 100 μl MTT (Sigma St Louis, Mo.)/well for 4 h, which was solubilized in isopropanol, and measured spectrophotometrically at 563 nm. […] To further ascertain the effect of berberine on the lethality of IR, clonogenic survival assay was performed to examine long term survival. IR or berberine-treated cells (1000 cells) were plated onto 10 cm tissue culture dish in five replicates. After 14 days, colonies were fixed with methanol, stained with 0.25% crystal violet, and counted if they were consisted of more than 50 cells. The fraction of colonies survived from the irradiation was normalized to that of the corresponding control. The curves were fitted to the data using linear-quadratic model. The data were depicted in FIG. 1C after normalization.
Statistical significances were analyzed by student t-test or one-way analysis of variance (ANOVA) with post-hock Dunnett's test. P-value≦0.05 was considered statistically significant (Sigma-Stat 2.0, San Rafael, Calif., USA). Survival fraction curve was analyzed by KaleigaGraph 4.0 then fitted to the data using linear-quadratic model. Combination index was analyzed by CalcuSyn.

A549 cells [4] = assay: mitochondrial membrane potential by JC-1 flow cytometry; assay type: cell-based, human; conditions: 1.0, 2.5, 5.0 and 10 μM berberine combined with irradiation (6 Gy), 24 h
Experimental: Berberine has been reported to induce cell death in several cancer cells via mitochondrial disruption (Lin J P, et al. World J Gastroenterol 2006; 12:21-28.). Therefore, mitochondrial membrane potential was next measured with JC-1. Mitochondria membrane potential (Δ Ψm), the lipophilic cationic probe fluorochrome JC-1 (Invitrogen) was used. […] After a treatment of radiation (6 Gy) for 24 h in the absence or presence of 1.0-10 μM berberine, cells were rinsed with DMEM, and JC-1 (5 μmol/L) was loaded. Determination of Δ Ψm was also carried out with a FACScan Flow Cytometer. […] It has been reported that depolarized mitochondria would move into autophagic vacuoles in response to appropriate stimulation; thus, mitochondria dysfunction may be a point of overlap between apoptotic and autophagocytic processes (Bras M, et al. Biochemistry (Mosc) 2005; 70:231-39). […] On the other hand, beclin-1 siRNA and 3-MA (autophagy inhibitor) blocked the cell death induced by 5.0 μM berberine combined with 6 Gy IR (p<0.001). As a consequence, berberine sensitized A549 cells to IR damage via inducing autophagic cell death.

A549 cells [5] = assay: cell cycle distribution by propidium iodide flow cytometry; assay type: cell-based, human; conditions: 24 h
Experimental: Flow cytometry was performed by propidium iodide staining (Roche Molecular Biochemical, Indianapolis, USA) according to the manufacturer's instructions. Untreated and treated cells were washed in PBS and fixed in ice-cold ethanol. Fixed cells were pelleted and resuspended in 500 μl of PBS. Then, the cells were stained with propidium iodide and analyzed for cell cycle distribution by flow cytometry with a FACStar caliber (Becton Dickinson) cell sorter. The percentage of each phase was evaluated by Cell-Quest software of the histograms.

[6] = IR (6 Gy) + 5.0 μM berberine, listed as Ber

## COc1ccc2cc3[n+](cc2c1OC)CCc1cc2c(cc1-3)OCO2 [berberine, Berberine]
A549 cells [1]; 6 Gy irradiation combined with 5.0 μM berberine
  proportion of acridine orange-positive cells: 50.3%
A549 cells [1]; 6 Gy irradiation combined with 10 μM berberine
  proportion of acridine orange-positive cells: 62.6%
A549 cells [1]; 24 h after co-treatment with berberine and IR (6 Gy)
  acridine orange-positive cells with bright red fluorescence (microscopy): detected
LLC cells
  dose and time dependent synergic-killing effect: also observed
A549 cells [2]; IR applied to cells incubated with berberine, 24 h and 48 h, A549 (FIG. 1B)
  cell viability: decreased
A549 cells [2]; berberine combined with 6 Gy IR, 24 h, A549 (FIG. 1A)
  combination effect on cell viability: conspicuous
A549 cells [3]; 10 μM berberine vs IR alone
  decrease in the D0 value: 4.2 fold
A549 cells [3]; IR + 2.5 μM berberine
  D0 (dose of radiation producing a 37% survival rate): 4.01 Gy
  SF2: 0.3184
A549 cells [3]; IR + 5.0 μM berberine
  D0 (dose of radiation producing a 37% survival rate): 2.70 Gy
  SF2: 0.2152
A549 cells [3]; IR + 10 μM berberine
  D0 (dose of radiation producing a 37% survival rate): 1.24 Gy
  SF2: 0.0991
A549 cells [4]
  mitochondrial membrane potential (JC-1): great loss of membrane potential
A549 cells [5]; IR (6 Gy) + 2.5 μM berberine
  G0/G1: 45.5 ± 4.96%
  G2/M: 28.8%
  S: 20.1 ± 2.26%
  sub G1: 5.6 ± 0.18%
A549 cells [5]; IR (6 Gy) + 2.5 μM berberine, listed as Ber
  G2/M: 28.8 ± 2.91%
A549 cells [5]; IR (6 Gy) + 5.0 μM berberine
  G0/G1: 36.2 ± 4.15%
  G2/M: 40.5%
  S: 14.8 ± 2.05%
  sub G1: 8.5%
A549 cells [5]; [6]
  G2/M: 40.5 ± 4.55%
  sub G1: 8.5 ± 0.22%
A549 cells [5]; IR (6 Gy) + 10 μM berberine
  G0/G1: 33.9 ± 4.01%
  G2/M: 41.7%
  S: 15.5 ± 1.81%
  sub G1: 8.9 ± 0.25%
A549 cells [5]; IR (6 Gy) + 10 μM berberine, listed as Ber
  G2/M: 41.7 ± 3.91%
A549 cells [5]; IR (6 Gy) + 20 μM berberine
  G0/G1: 37.2 ± 4.27%
  G2/M: 30.5 ± 3.18%
  S: 16.7 ± 2.33%
  sub G1: 15.6 ± 1.26%

— patent US20090076050A1, “SYNERGISTIC TUMOR-KILLING EFFECT OF RADIATION AND BERBERINE COMBINED TREATMENT IN LUNG CANCER” (CHUNG SHAN MEDICAL U., priority 2007, published 2009)
